Among the data in ChEMBL document CHEMBL1131863, “Synthesis and antibacterial activity of HMR 3647 a new ketolide highly potent against erythromycin-resistant and susceptible pathogens” (1999) are ED50, MIC and MIC50/MIC90 values, retold here.

Assay [1] has as its system Haemophilus influenzae. The assay is described as follows: (§1) The compound was tested in vivo for antibacterial activity against Haemophilus influenza 351GR1 in mice after oral administration. The class given is functional.
In assay [2] the test system is Haemophilus influenzae. Briefly: (§2) The compound was tested in vivo for antibacterial activity against AmpR beta(-) Haemophilus influenza 351TO19 in mice after oral administration. The class given is functional.
In assay [3] the test system is Haemophilus influenzae. The assay is described as follows: (§3) The compound was tested in vivo for antibacterial activity against AmpR beta(+) Haemophilus influenza 351RD7 in mice after oral administration. The class given is functional.
In a further assay the test system is Streptococcus pyogenes. The assay is described as follows: The compound was tested in vitro for antibacterial activity against erythromycin susceptible Streptococcus pyogenes 02A1UC1. The class given is functional.
The next assay relates to Staphylococcus sp. The assay is described as follows: The compound was tested in vitro for antibacterial activity against 66 strains of inducibly erythromycin resistant Staphylococci; Value is 40/40. The class given is functional, organism-based.
Assay [4] relates to Streptococcus pneumoniae. Briefly: The compound was tested in vitro for antibacterial activity against inducibly erythromycin resistant Streptococcus pneumoniae 030J5i. It is filed as functional.
The subject of assay [5] is Haemophilus influenzae. The assay is described as follows: The compound was tested in vitro for antibacterial activity against 47 strains of Haemophilus influenza AmpS; Value is 1.2/5. The class given is functional, organism-based.
Assay [6] concerns Streptococcus pneumoniae. The assay is described as follows: The compound was tested in vitro for antibacterial activity against constitutively erythromycin resistant Streptococcus pneumoniae 030PW23c. It is filed as functional.
Assay [7] has as its system Mus musculus. Briefly: The compound was tested in vivo for antibacterial activity against constitutively erythromycin resistant Streptococcus pneumoniae 030Cr29 in mice after oral administration. The class given is functional.
The test system of assay [8] is Streptococcus pneumoniae. Briefly: The compound was tested in vitro for antibacterial activity against 40 strains of constitutively erythromycin resistant Streptococcus pneumoniae Value is 40/40. It is filed as functional, organism-based.
Assay [9] deals with Streptococcus pneumoniae. The assay is described as follows: The compound was tested in vitro for antibacterial activity against 53 strains of Streptococcus pneumoniae PenR Value is 0.3/40. The class given is functional, organism-based.
Assay [10] deals with Haemophilus influenzae. Briefly: The compound was tested in vitro for antibacterial activity against 39 strains of Haemophilus influenza AmpR; Value is 2.5/10. The class given is functional, organism-based.
Assay [11] has as its system Staphylococcus aureus. The assay is described as follows: The compound was tested in vitro for antibacterial activity against constitutively erythromycin resistant Staphylococcus aureus 011CB20. The class given is functional.
The next assay relates to Streptococcus sp. Briefly: The compound was tested in vitro for antibacterial activity against 31 strains of erythromycin resistant Streptococci; Value is 1.2/40. It is filed as functional, organism-based.
Assay [12] relates to Staphylococcus aureus. The assay is described as follows: The compound was tested in vitro for antibacterial activity against inducibly erythromycin resistant Staphylococcus aureus 011GO25i. It is filed as functional.
For assay [13], the system named is Staphylococcus aureus. The assay is described as follows: The compound was tested in vitro for antibacterial activity against erythromycin susceptible Staphylococcus aureus 011UC4. It is filed as functional.
In assay [14] the test system is Mus musculus. The description is as §1. It is filed as functional.
The test system of assay [15] is Mus musculus. Described as §2. It is filed as functional.
For assay [16], the system named is Mus musculus. The description is as §3. It is filed as functional.
Assay [17] has as its system Mus musculus. The assay is described as follows: The compound was tested in vivo for antibacterial activity against erythromycin susceptible Streptococcus pneumoniae 032UC1 in mice after oral administration. The class given is functional.
Assay [18] concerns Mus musculus. Briefly: The compound was tested in vivo for antibacterial activity against erythromycin susceptible Streptococcus pyogenes 02A1UC1 in mice after oral administration. The class given is functional.
Assay [19] deals with Mus musculus. The assay is described as follows: The compound was tested in vivo for antibacterial activity against constitutively erythromycin resistant Streptococcus pneumoniae 030SJ1 in mice after oral administration. It is filed as functional.
The subject of assay [20] is Streptococcus pneumoniae. The assay is described as follows: The compound was tested in vitro for antibacterial activity against erythromycin susceptible Streptococcus pneumoniae 032UC1. It is filed as functional.
A further assay relates to Escherichia coli. The assay is described as follows: The compound was tested in vitro for antibacterial activity against Escherichia coli 250 UCS. The class given is functional.
The subject of assay [21] is Streptococcus pneumoniae. Briefly: The compound was tested in vitro for antibacterial activity against 32 strains of inducibly erythromycin resistant Streptococcus pneumoniae Value is 40/40. It is filed as functional, organism-based.
Assay [22] deals with Mus musculus. Briefly: The compound was tested in vivo for antibacterial activity against constitutively erythromycin resistant Streptococcus pneumoniae 030MV2 in mice after oral administration. It is filed as functional.
Assay [23] deals with Haemophilus influenzae. Briefly: The compound was tested in vitro for antibacterial activity against Haemophilus influenza 351HT3. The class given is functional.
In assay [24] the test system is Mus musculus. The assay is described as follows: The compound was tested in vivo for antibacterial activity against inducibly erythromycin resistant Streptococcus pneumoniae 030RO1 in mice after oral administration. The class given is functional.
Assay [25] relates to Streptococcus pneumoniae. Briefly: The compound was tested in vitro for antibacterial activity against constitutively erythromycin resistant Streptococcus pneumoniae 030SJ1. It is filed as functional.
The subject of assay [26] is Streptococcus pneumoniae. The assay is described as follows: The compound was tested in vitro for antibacterial activity against constitutively erythromycin resistant Streptococcus pneumoniae 030CR18c. The class given is functional.
Assay [27] has as its system Mus musculus. Briefly: The compound was tested in vivo for antibacterial activity against inducibly erythromycin resistant Staphylococcus aureus 011GO3 in mice after oral administration. The class given is functional.
Assay [28] has as its system Mus musculus. Briefly: The compound was tested in vivo for antibacterial activity against constitutively erythromycin resistant Streptococcus pneumoniae 030SJ6 in mice after oral administration. The class given is functional.
The test system of assay [29] is Mus musculus. The assay is described as follows: The compound was tested in vivo for antibacterial activity against erythromycin susceptible Staphylococcus aureus 011UC4 in mice after oral administration. The class given is functional.

The structures appear in SMILES notation. Converted amounts (≈) assume the structure as drawn. The source made the active and inactive calls. The rule behind the calls is not given here.

For `CC1(C)S[C@@H]2[C@H](NC(=O)[C@H](N)c3ccccc3)C(=O)N2[C@H]1C(=O)O` [AMPICILLIN], the results for the ED50 in the assay on Haemophilus influenzae [1], in the assay with Haemophilus influenzae [2] and in the assay on Haemophilus influenzae [3] were 5.5 mg/kg, 39 mg/kg and more than 600 mg/kg, respectively.

On to `CC[C@H]1OC(=O)[C@H](C)[C@@H](O[C@H]2C[C@@](C)(OC)[C@@H](O)[C@H](C)O2)[C@H](C)[C@@H](O[C@@H]2O[C@H](C)C[C@H](N(C)C)[C@H]2O)[C@](C)(OC)C[C@@H](C)C(=O)[C@H](C)[C@@H](O)[C@]1(C)O` [CLARITHROMYCIN], for which the MIC with Streptococcus pyogenes came out at 0.08 µg/mL (≈ 0.107 µM); in the assay on Streptococcus pneumoniae [4], 40 µg/mL (≈ 53.5 µM); against Streptococcus pneumoniae [6], 40 µg/mL (≈ 53.5 µM); against Staphylococcus aureus [11], 40 µg/mL (≈ 53.5 µM); against Staphylococcus aureus [12], 40 µg/mL (≈ 53.5 µM); in the assay on Staphylococcus aureus [13], 0.3 µg/mL (≈ 0.401 µM). Also, the MIC with Streptococcus pneumoniae [20] was found to be 0.04 µg/mL (≈ 0.0535 µM); against Escherichia coli it was 40 µg/mL (≈ 53.5 µM); against Haemophilus influenzae [23], 5 µg/mL (≈ 6.68 µM); in the assay on Streptococcus pneumoniae [25], 40 µg/mL (≈ 53.5 µM); against Streptococcus pneumoniae [26], 40 µg/mL (≈ 53.5 µM). Also, the MIC50/MIC90 entry with Staphylococcus sp., with Haemophilus influenzae [5], in the assay with Streptococcus pneumoniae [8], in the assay on Streptococcus pneumoniae [9], in the assay with Haemophilus influenzae [10] and in the assay with Streptococcus sp. was “Active” each time. Besides, the MIC50/MIC90 entry in the assay with Streptococcus pneumoniae [21] is “Active”. Moreover, the ED50 with Mus musculus [7] is more than 50 mg/kg; with Mus musculus [14], 71 mg/kg; in the assay on Mus musculus [15], more than 300 mg/kg; in the assay with Mus musculus [16], 120 mg/kg; with Mus musculus [17], 7.5 mg/kg; in the assay with Mus musculus [18], 16 mg/kg. For the same molecule, the ED50 with Mus musculus [19] is more than 50 mg/kg; with Mus musculus [22], more than 50 mg/kg; in the assay with Mus musculus [24], more than 50 mg/kg; with Mus musculus [27], 55 mg/kg; in the assay on Mus musculus [28], more than 50 mg/kg; in the assay on Mus musculus [29] it was 6 mg/kg.
